Test results taken from patent US8735584B2 (Merck Patent GmbH, priority 2008, dated 2014).

Each compound was assayed against T1, GST-Aurora A (Homo sapiens, UniProt O14965) (assay: Aurora A IC50, Caliper LC3000 mobility shift assay). Details: LC3000 method; 15 uM ATP (the KM value); read-out: Aurora Kinase A Activity (IC50).
T1 construct: N-terminal GST fusion with full length Aurora A (1-403 amino acids); purchased Carna Biosciences 05-101
T1 sequence (O14965 1-403): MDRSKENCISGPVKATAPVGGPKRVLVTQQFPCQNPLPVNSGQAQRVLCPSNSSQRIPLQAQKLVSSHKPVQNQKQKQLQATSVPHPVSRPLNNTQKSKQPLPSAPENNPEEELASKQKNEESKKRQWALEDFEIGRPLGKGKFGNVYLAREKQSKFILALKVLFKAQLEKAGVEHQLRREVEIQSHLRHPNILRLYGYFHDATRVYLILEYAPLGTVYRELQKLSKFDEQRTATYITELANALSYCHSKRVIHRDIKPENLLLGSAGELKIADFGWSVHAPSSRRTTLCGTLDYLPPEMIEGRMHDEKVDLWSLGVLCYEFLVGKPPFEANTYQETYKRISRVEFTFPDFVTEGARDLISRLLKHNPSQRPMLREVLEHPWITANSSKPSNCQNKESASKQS
Type: biochemical
Method in brief: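 Readout: percent conversion of FITC-LRRASLG (1 uM) to phosphopeptide, resolved electrophoretically on a Caliper LC3000, fitted against inhibitor concentration for IC50. Reaction: N-terminal GST full-length Aurora A, ATP at its KM (15 uM), pH 7.5 HEPES with MgCl2/DTT, 25 C for 90 min.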

Question: How did the IC50 turn out when `CN(C)CCNC(=O)c1ccc2c(=O)[nH]c3nccc(Nc4ccc(NC(=O)c5ccccc5)cc4)c3c2c1` [Compound 285, 1-(4-benzamidophenylamino)-N-(2-(dimethylamino)ethyl)-6-oxo-5,6-dihydrobenzo[c][1,8]naphthyridine-9-carboxamide] was run?
Answer: < 11 nM

Question: `O=C(Nc1ccc(Nc2ccnc3[nH]c(=O)c4c(C(=O)NCCCN5CCOCC5)cccc4c23)cc1)c1ccc(F)cc1C(F)(F)F` [Compound 443, 1-[4-(4-Fluoro-2-trifluoromethyl-benzoylamino)-phenylamino)-6-oxo-5,6-dihydro-benzo[c][1,8]naphthyridin-7-carboxylic acid 3-morpholin-4-yl-propyl amide] was tested. Which IC50 did it give?
Answer: < 11 nM

Question: `O=C(Nc1ccc(Nc2ccnc3[nH]c(=O)c4ccccc4c23)cc1)c1cccc2c1OCC2` [Compound 433, 2,3-Dihydro-benzofuran-7-carboxylic acid [4-(6-oxo-5,6-dihydro-benzo[c][1,8]naphthyridin-1-ylamino)-phenyl]-amide] was tested. Which IC50 did it give?
Answer: 11 to 100 nM

Question: How did the IC50 turn out when `O=C(Cc1cc(Nc2ccnc3[nH]c(=O)c4ccccc4c23)n[nH]1)Nc1cccc(F)c1` [Compound 314, N-(3-Fluorophenyl)-2-(3-(6-oxo-5,6-dihydrobenzo[c][1,8]naphthyridin-1-ylamino)-1H-pyrazol-5-yl)acetamide] was run?
Answer: > 100 nM

Question: For `O=C(Nc1ccc(Nc2ccnc3[nH]c(=O)c4ccccc4c23)cc1)C1(c2ccccc2)CC1` [Compound 502, N-(4-(6-Oxo-5,6-dihydrobenzo[c][1,8]naphthyridin-1-ylamino)phenyl)-1-phenylcyclopropanecarboxamide], which IC50 is on record?
Answer: 11 to 100 nM

Question: Which IC50 does the source give for `O=C(Nc1ccc(Nc2ccnc3[nH]c(=O)c4ccccc4c23)cc1)C(F)c1ccccc1` (stereo not drawn) [Compound 505, 2-Fluoro-N-(4-(6-oxo-5,6-dihydrobenzo[c][1,8]naphthyridin-1-ylamino)phenyl)-2-phenylacetamide] here?
Answer: 11 to 100 nM

Question: How did the IC50 turn out when `O=C(Nc1ccc(Nc2ccnc3[nH]c(=O)c4ccccc4c23)cc1)c1cccnc1` [Compound 344] was run?
Answer: 11 to 100 nM

Question: How did the IC50 turn out when `NCCNC(=O)c1ccc2c(=O)[nH]c3nccc(Nc4ccc(NC(=O)c5ccccc5)cc4)c3c2c1` [Compound 284, N-(2-Aminoethyl)-1-(4-benzamidophenylamino)-6-oxo-5,6-dihydrobenzo[c][1,8]naphthyridine-9-carboxamide] was run?
Answer: < 11 nM

Question: How did the IC50 turn out when `O=c1[nH]c2nccc(Nc3ccc4c(cnn4Cc4ccccc4)c3)c2c2ccccc12` [Compound 333, 1-(1-Benzyl-1H-indazol-5-ylamino)benzo[c][1,8]naphthyridin-6(5H)-one] was run?
Answer: 11 to 100 nM

Question: How did the IC50 turn out when `O=C(Nc1ccc(Nc2ccnc3[nH]c(=O)c4ccccc4c23)cc1)c1ccc(Cl)cc1Cl` [Compound 399, 2,4-Dichloro-N-[4-(6-oxo-5,6-dihydro-benzo[c][1,8]naphthyridin-1-ylamino)-phenyl]-benzamide] was run?
Answer: < 11 nM

Question: For `O=C(CC1CC1)Nc1ccc(Nc2ccnc3[nH]c(=O)c4ccccc4c23)cc1` [Compound 352, 2-Cyclopropyl-N-(4-(6-oxo-5,6-dihydrobenzo[c][1,8]naphthyridin-1-ylamino)phenyl)acetamide], which IC50 is on record?
Answer: 11 to 100 nM

Question: With `Cn1ccc(-c2ccc(Nc3ccnc4[nH]c(=O)c5ccccc5c34)cc2)n1` [Compound 335, 1-(4-(1-Methyl-1H-pyrazol-3-yl)phenylamino)benzo[c][1,8]naphthyridin-6(5H)-one] as the compound, how does the IC50 read?
Answer: > 100 nM

Question: Which IC50 does the source give for `O=C(Nc1ccc(Nc2ccnc3[nH]c(=O)c4ccc(F)cc4c23)cc1)c1cccc(F)c1F` [Compound 418, 2,3-Difluoro-N-[4-(9-fluoro-6-oxo-5,6-dihydro-benzo[c][1,8]naphthyridin-1-ylamino)-phenyl]-benzamide] here?
Answer: < 11 nM

Question: With `O=C(Nc1ccc(Nc2ccnc3[nH]c(=O)c4c(OCCN5CCOCC5)cccc4c23)cc1)c1ccccc1` [Compound 447] as the compound, how does the IC50 read?
Answer: 11 to 100 nM

Question: `O=C(Nc1ccc(Nc2ccnc3[nH]c(=O)c4ccccc4c23)cc1)C(CC1CCCO1)C(F)(F)F` (stereo not drawn) [Compound 495, 3,3,3-Trifluoro-N-(4-(6-oxo-5,6-dihydrobenzo[c][1,8]naphthyridin-1-ylamino)phenyl)-2-((tetrahydrofuran-2-yl)methyl)propanamide] was tested. Which IC50 did it give?
Answer: 11 to 100 nM

Question: How did the IC50 turn out when `O=c1[nH]c2ncccc2c2cc(NCc3cccc(C(F)(F)F)c3)ccc12` [Example 69, 9-(3-Trifluoromethyl-benzylamino)-5H-benzo[c][1,8]naphthyridin-6-one] was run?
Answer: 11 to 100 nM

Question: Which IC50 does the source give for `CN1CCN(Cc2ccc3c(=O)[nH]c4nccc(Nc5ccc(NC(=O)c6ccccc6)cc5)c4c3c2)CC1` [Compound 291, N-(4-(9-((4-methylpiperazin-1-yl)methyl)-6-oxo-5,6-dihydrobenzo[c][1,8]naphthyridin-1-ylamino)phenyl)benzamide] here?
Answer: < 11 nM

Question: For `CCN(CCO)Cc1ccc2c(c1)c(=O)[nH]c1nccc(Nc3ccc(NC(=O)c4ccccc4)cc3)c12` [Compound 274, N-(4-(8-((Ethyl(2-hydroxyethyl)amino)methyl)-6-oxo-5,6-dihydrobenzo[c][1,8]naphthyridin-1-ylamino)phenyl)benzamide], which IC50 is on record?
Answer: 11 to 100 nM

Question: How did the IC50 turn out when `O=c1[nH]c2ncccc2c2cc(NCc3cccc4ccccc34)ccc12` [Example 45, 9-[(Naphthalen-1-ylmethyl)-amino]-5H-benzo[c][1,8]naphthyridin-6-one] was run?
Answer: > 100 nM

Question: `CN1CCCC1CCNc1ccc2c(=O)[nH]c3ncccc3c2c1` (stereo not drawn) [Compound 475, 9-(2-(1-Methylpyrrolidin-2-yl)ethylamino)benzo[c][1,8]naphthyridin-6(5H)-one] was tested. Which IC50 did it give?
Answer: > 100 nM

Question: How did the IC50 turn out when `CN(C)CCNC(=O)c1ccc2c(=O)[nH]c3nccc(Nc4ccc(NC(=O)c5ccc(F)cc5C(F)(F)F)cc4)c3c2c1` [Compound 297, N-(2-(Dimethylamino)ethyl)-1-(4-(4-fluoro-2-(trifluoromethyl)benzamido)phenylamino)-6-oxo-5,6-dihydrobenzo[c][1,8]naphthyridine-9-carboxamide] was run?
Answer: < 11 nM

Question: How did the IC50 turn out when `O=C(Nc1ccc(CNc2ccnc3[nH]c(=O)c4ccccc4c23)cc1)c1cc(F)cc(F)c1` [Compound 326, 3,5-Difluoro-N-(4-((6-oxo-5,6-dihydrobenzo[c][1,8]naphthyridin-1-ylamino)methyl)phenyl)benzamide] was run?
Answer: 11 to 100 nM

Question: For `O=C(c1cc(F)cc(F)c1)N1CCC(CNc2ccnc3[nH]c(=O)c4ccccc4c23)C1` (stereo not drawn) [Compound 362, 1-((1-(3,5-Difluorobenzoyl)pyrrolidin-3-yl)methylamino)benzo[c][1,8]naphthyridin-6(5H)-one], which IC50 is on record?
Answer: > 100 nM

Question: With `O=C(Nc1ccccc1)Nc1ccc(Nc2ccnc3[nH]c(=O)c4ccccc4c23)cc1` [Compound 343, 1-(4-(6-Oxo-5,6-dihydrobenzo[c][1,8]naphthyridin-1-ylamino)phenyl)-3-phenylurea] as the compound, how does the IC50 read?
Answer: < 11 nM

Question: Which IC50 does the source give for `O=C(Nc1ccc(Nc2ccnc3[nH]c(=O)c4ccccc4c23)cc1)c1ccc(F)cc1C(F)(F)F` [Compound 378, 4-Fluoro-N-[4-(6-oxo-5,6-dihydro-benzo[c][1,8]naphthyridin-1-ylamino)-phenyl]-2-trifluoromethyl-benzamide] here?
Answer: < 11 nM

Question: For `O=C(Nc1ccc(Nc2ccnc3[nH]c(=O)c4ccccc4c23)cc1)C1(C(F)(F)F)CC1` [Compound 501, N-(4-(6-Oxo-5,6-dihydrobenzo[c][1,8]naphthyridin-1-ylamino)phenyl)-1-(trifluoromethyl)cyclopropanecarboxamide], which IC50 is on record?
Answer: 11 to 100 nM

Question: With `O=C(Nc1ccc(Nc2ccnc3[nH]c(=O)c4ccccc4c23)cc1)C1(C(F)(F)F)CCCC1` [Compound 500, N-(4-(6-Oxo-5,6-dihydrobenzo[c][1,8]naphthyridin-1-ylamino)phenyl)-1-(trifluoromethyl)cyclopentanecarboxamide] as the compound, how does the IC50 read?
Answer: 11 to 100 nM

Question: Which IC50 does the source give for `O=C(Nc1ccc(Oc2ccnc3[nH]c(=O)c4ccccc4c23)cc1)c1cccn(-c2ccc(F)cc2)c1=O` [Example 181, 1-(4-Fluoro-phenyl)-2-oxo-1,2-dihydro-pyridine-3-carboxylic acid [4-(6-oxo-5,6-dihydro-benzo[c][1,8]naphthyridin-1-yloxy)-phenyl]-amide] here?
Answer: > 100 nM

Question: How did the IC50 turn out when `CC(=O)Nc1ccc(C#Cc2ccnc3[nH]c(=O)c4ccccc4c23)cc1` [Compound 265] was run?
Answer: > 100 nM

Question: For `O=C(Nc1ccc(Nc2ccnc3[nH]c(=O)c4c(O)cccc4c23)cc1)c1ccc(F)cc1C(F)(F)F` [Compound 445, 4-Fluoro-N-[4-(7-hydroxy-6-oxo-5,6-dihydro-benzo[c][1,8]naphthyridin-1-ylamino)-phenyl]-2-trifluoromethyl-benzamide], which IC50 is on record?
Answer: 11 to 100 nM

Question: `O=C(Nc1ccc(Nc2ccnc3[nH]c(=O)c4ccccc4c23)cc1)c1ccc(F)cc1F` [Compound 391, 2,4-Difluoro-N-[4-(6-oxo-5,6-dihydro-benzo[c][1,8]naphthyridin-1-ylamino)-phenyl]-benzamide] was tested. Which IC50 did it give?
Answer: < 11 nM

Question: With `Cn1ccc(C(=O)Nc2ccc(Nc3ccnc4[nH]c(=O)c5ccccc5c34)cc2)n1` [Compound 345, 1-methyl-N-(4-(6-oxo-5,6-dihydrobenzo[c][1,8]naphthyridin-1-ylamino)phenyl)-1H-pyrazole-3-carboxamide] as the compound, how does the IC50 read?
Answer: 11 to 100 nM

Question: With `O=C(Nc1ccc(Nc2ccnc3[nH]c(=O)c4ccccc4c23)cc1)c1ccc(F)c(F)c1` [Compound 384, 3,4-Difluoro-N-[4-(6-oxo-5,6-dihydro-benzo[c][1,8]naphthyridin-1-ylamino)-phenyl]-benzamide] as the compound, how does the IC50 read?
Answer: < 11 nM
